These results are taken from ChEMBL document CHEMBL4680201, “Design, synthesis, and pharmacological evaluation of 4- or 6-phenyl-pyrimidine derivatives as novel and selective Janus kinase 3 inhibitors” (Eur J Med Chem, 2020).

Calls of active or inactive are those of the source. The calls are words filed in the database; no cut-off is given here.

The nature of data set [1]: Toxicity in Balb/c mouse model of oxazolone-induced delayed type hypersensitivity assessed as change in body weight up to 30 mg/kg, po. It is filed as organism-based. Conditions: in vivo.
For data set [2], the target named is BLK (Tyrosine-protein kinase Blk) (Homo sapiens, UniProt P51451). Nature of the data set: Inhibition of recombinant human His-tagged full length BLK expressed in baculovirus expression system at 100 nM using Tyr01 peptide as substrate incubated for 1 hr in presence of ATP by Z'-LYTE assay relative to control. Particulars: probe Tyr01 peptide.
BLK (Tyrosine-protein kinase Blk), sequence (P51451 whole entry): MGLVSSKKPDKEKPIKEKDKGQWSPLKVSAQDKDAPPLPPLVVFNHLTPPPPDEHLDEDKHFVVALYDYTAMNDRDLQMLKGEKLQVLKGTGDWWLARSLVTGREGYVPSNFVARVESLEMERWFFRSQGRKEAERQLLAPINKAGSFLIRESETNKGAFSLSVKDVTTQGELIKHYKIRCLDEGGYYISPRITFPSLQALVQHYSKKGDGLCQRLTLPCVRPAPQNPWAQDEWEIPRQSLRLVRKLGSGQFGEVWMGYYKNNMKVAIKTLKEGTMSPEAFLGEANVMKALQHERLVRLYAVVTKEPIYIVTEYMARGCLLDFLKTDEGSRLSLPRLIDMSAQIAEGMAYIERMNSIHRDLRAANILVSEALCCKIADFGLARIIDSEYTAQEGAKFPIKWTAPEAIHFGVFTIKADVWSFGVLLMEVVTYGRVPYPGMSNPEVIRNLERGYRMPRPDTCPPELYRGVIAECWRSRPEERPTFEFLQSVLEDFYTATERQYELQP
For data set [3], the target named is T1, ITK (Tyrosine-protein kinase ITK/TSK) (Homo sapiens, UniProt Q08881).
T1 sequence (Q08881 whole entry): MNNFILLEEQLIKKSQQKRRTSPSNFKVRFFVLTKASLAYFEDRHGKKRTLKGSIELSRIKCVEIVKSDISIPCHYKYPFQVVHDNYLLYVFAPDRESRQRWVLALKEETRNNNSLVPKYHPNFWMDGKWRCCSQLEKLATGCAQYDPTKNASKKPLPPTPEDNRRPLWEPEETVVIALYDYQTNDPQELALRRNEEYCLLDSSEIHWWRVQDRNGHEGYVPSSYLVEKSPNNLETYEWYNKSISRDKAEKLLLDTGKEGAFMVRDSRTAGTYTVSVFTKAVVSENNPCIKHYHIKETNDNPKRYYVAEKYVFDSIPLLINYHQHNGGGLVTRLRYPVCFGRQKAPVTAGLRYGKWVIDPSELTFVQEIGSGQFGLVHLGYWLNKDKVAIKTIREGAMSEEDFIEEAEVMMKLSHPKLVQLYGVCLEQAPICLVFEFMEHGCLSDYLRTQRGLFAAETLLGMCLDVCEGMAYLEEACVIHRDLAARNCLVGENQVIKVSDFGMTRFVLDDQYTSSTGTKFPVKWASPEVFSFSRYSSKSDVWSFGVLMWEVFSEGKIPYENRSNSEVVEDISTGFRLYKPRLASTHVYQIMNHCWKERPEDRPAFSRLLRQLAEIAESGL
In words: Inhibition of recombinant human GST-tagged full length ITK expressed in baculovirus expression system at 100 nM using Tyr01 peptide as substrate incubated for 1 hr by Z'lyte assay relative to control. Conditions: probe Tyr01 peptide.

Data set [4] is described as follows: Terminal half life in ICR mouse at 10 mg/kg, iv administered as single dose by LC-MS/MS analysis. Format: ADME, organism-based. Conditions: in vivo, read-out: beta t1/2 (converted).
Data set [5] in a line: Plasma clearance in ICR mouse at 30 mg/kg, po administered as single dose via gavage by LC-MS/MS analysis. Format: ADME, organism-based. Conditions: in vivo.
Data set [6] deals with ERBB4 (Receptor tyrosine-protein kinase erbB-4) (Homo sapiens, UniProt Q15303). Nature of the data set: Inhibition of recombinant human N-terminal GST-tagged ERBB4 catalytic domain (708 to 993 residues) expressed in baculovirus expression system at 100 nM using tyrosine-1 peptide as substrate incubated for 60 mins in presence of ATP by Z'-LYTE assay relative to control. Conditions: probe tyrosine-1 peptide.
ERBB4 (Receptor tyrosine-protein kinase erbB-4), sequence (Q15303 whole entry, the tested form may be a part): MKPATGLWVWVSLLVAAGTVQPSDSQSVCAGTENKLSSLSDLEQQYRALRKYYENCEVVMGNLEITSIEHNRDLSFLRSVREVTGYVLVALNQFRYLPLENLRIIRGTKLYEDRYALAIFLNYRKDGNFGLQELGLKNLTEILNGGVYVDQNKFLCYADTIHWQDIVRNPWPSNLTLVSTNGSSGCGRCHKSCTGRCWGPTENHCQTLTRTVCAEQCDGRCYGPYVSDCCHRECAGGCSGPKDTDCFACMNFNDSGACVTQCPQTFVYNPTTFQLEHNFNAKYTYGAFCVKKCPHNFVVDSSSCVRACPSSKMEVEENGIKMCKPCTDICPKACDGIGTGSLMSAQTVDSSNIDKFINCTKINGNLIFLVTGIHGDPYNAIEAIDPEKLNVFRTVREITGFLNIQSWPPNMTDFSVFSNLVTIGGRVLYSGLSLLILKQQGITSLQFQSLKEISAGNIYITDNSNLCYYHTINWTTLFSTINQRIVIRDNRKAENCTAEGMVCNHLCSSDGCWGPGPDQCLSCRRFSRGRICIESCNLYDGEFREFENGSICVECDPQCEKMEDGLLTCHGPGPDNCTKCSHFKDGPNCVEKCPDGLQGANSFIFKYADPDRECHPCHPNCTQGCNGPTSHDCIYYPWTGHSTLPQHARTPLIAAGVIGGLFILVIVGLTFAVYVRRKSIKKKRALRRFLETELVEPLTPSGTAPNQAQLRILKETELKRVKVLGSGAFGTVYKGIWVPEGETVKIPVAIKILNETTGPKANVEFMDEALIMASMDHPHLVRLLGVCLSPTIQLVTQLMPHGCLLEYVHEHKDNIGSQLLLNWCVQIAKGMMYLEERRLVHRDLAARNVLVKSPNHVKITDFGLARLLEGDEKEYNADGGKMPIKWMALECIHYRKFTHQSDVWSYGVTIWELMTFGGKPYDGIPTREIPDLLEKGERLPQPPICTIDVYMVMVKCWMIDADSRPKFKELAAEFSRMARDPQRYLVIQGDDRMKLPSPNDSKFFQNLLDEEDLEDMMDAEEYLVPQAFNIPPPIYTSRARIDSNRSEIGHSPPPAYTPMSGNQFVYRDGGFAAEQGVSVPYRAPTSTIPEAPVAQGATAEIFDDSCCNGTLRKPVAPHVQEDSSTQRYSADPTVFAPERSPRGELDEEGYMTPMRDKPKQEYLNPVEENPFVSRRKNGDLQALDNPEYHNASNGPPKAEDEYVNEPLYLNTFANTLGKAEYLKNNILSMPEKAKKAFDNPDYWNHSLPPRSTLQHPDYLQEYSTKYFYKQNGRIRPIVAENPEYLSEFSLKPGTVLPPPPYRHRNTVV

Data set [7] has as its target Tyrosine-protein kinase JAK1 (Homo sapiens, UniProt P23458). In words: Inhibition of recombinant human GST-tagged JAK1 cytoplasmic domain (866 to 1154 residues) expressed in baculovirus expression system using TK-substrate-biotin preincubated for 5 mins followed by substrate addition and measured after 30 mins by HTRF assay. A general note: TR-FRET usually uses a lanthanide donor and a delayed reading to cut background.

The target in data set [8] is BTK (Tyrosine-protein kinase BTK) (Homo sapiens, UniProt Q06187). In words: Inhibition of recombinant human His-tagged full length BTK expressed in baculovirus expression system at 100 nM using Tyr01 peptide as substrate incubated for 1 hr by Z'lyte assay relative to control. Conditions: probe Tyr01 peptide.
BTK (Tyrosine-protein kinase BTK), sequence (Q06187 whole entry): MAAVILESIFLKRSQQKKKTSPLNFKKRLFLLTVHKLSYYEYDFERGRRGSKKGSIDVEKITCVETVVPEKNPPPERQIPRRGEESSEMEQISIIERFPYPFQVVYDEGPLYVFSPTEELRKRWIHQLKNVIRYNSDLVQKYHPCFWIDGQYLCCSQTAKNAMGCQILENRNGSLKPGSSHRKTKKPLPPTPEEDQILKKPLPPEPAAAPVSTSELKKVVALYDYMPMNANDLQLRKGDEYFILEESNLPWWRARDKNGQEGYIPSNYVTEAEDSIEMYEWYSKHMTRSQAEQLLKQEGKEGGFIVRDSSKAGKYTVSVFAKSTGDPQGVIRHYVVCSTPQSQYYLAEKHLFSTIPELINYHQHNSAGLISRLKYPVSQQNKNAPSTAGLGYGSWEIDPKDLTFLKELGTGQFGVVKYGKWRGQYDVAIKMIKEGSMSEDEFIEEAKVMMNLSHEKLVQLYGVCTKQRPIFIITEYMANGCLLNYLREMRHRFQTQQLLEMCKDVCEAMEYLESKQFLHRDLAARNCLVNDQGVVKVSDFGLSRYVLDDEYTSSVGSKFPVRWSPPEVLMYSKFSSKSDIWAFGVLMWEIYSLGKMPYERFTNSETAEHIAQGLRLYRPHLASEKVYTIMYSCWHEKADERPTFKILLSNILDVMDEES
Data set [9] deals with Mus musculus. Nature of the data set: Immunosuppressive activity in po dosed Balb/c mouse model of oxazolone-induced delayed type hypersensitivity assessed as reduction in ear swelling measured after 7 days. It is filed as functional, organism-based. Particulars: time 7.0 day.
The nature of data set [10]: AUC (0 to infinity) in ICR mouse at 10 mg/kg, iv administered as single dose by LC-MS/MS analysis. Format: ADME, organism-based. The arrangement: route intravenous, time infinity, dose 10 mg/kg. Particulars: in vivo.
Data set [11] concerns the target T2, Tyrosine-protein kinase JAK3 (Mus musculus) (UniProt Q62137).
T2 sequence (whole entry): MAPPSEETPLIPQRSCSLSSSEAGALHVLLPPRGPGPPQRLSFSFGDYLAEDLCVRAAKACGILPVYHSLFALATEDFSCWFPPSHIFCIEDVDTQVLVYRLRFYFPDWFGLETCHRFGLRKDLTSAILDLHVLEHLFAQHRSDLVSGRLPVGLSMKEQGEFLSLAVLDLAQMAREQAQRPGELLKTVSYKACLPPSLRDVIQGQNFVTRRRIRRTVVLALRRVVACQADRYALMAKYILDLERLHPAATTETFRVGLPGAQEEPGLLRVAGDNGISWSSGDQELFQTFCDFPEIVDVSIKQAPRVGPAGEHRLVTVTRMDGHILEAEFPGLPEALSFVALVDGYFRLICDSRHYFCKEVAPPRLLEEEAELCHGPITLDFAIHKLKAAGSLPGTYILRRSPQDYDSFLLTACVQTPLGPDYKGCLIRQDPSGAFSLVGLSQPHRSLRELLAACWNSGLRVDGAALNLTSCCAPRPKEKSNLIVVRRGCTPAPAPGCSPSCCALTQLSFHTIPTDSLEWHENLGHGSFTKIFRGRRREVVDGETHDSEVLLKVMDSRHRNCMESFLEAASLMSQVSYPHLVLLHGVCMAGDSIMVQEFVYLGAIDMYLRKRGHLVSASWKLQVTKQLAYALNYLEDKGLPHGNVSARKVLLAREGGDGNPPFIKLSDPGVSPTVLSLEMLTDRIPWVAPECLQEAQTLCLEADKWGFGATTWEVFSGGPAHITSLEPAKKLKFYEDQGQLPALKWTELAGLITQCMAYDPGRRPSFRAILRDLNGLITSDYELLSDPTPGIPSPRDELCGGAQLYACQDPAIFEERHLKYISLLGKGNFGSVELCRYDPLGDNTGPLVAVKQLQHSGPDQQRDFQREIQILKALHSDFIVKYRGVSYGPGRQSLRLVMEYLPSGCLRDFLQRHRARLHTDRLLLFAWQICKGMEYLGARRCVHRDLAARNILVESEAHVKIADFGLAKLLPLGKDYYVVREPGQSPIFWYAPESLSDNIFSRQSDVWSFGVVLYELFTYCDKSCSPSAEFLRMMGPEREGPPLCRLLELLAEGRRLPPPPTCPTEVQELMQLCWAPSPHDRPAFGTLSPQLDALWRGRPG
In words: Inhibition of JAK3 in anti-CD3/-CD28 coated mouse T cells assessed as reduction in IL2-induced STAT5 phosphorylation at 10 uM preincubated for 1 hr followed by IL2 stimulation and measured after 30 mins by Western blot analysis. Conditions: T cell. On the technique in general: In western blotting, separated proteins are transferred to a membrane and probed.

Data set [12] can be described thus: Cytotoxicity against resting mouse T cells assessed as reduction in cell viability at 10 uM measured after 72 hrs by MTS assay. Format: cell-based. For orientation: Formazan colour is commonly taken as a measure of viable cells.
Data set [13] deals with T2, Tyrosine-protein kinase JAK3 (Mus musculus). In words: Inhibition of JAK3 in anti-CD3/-CD28 coated mouse T cells assessed as reduction in IL15-induced STAT5 phosphorylation preincubated for 1 hr followed by […] and measured after 30 mins by Western blot analysis. Conditions: T cell.
For data set [14], the target named is Tyrosine-protein kinase JAK2 (Homo sapiens, UniProt O60674). It is filed as ADME.
Tyrosine-protein kinase JAK2, sequence (O60674 whole entry): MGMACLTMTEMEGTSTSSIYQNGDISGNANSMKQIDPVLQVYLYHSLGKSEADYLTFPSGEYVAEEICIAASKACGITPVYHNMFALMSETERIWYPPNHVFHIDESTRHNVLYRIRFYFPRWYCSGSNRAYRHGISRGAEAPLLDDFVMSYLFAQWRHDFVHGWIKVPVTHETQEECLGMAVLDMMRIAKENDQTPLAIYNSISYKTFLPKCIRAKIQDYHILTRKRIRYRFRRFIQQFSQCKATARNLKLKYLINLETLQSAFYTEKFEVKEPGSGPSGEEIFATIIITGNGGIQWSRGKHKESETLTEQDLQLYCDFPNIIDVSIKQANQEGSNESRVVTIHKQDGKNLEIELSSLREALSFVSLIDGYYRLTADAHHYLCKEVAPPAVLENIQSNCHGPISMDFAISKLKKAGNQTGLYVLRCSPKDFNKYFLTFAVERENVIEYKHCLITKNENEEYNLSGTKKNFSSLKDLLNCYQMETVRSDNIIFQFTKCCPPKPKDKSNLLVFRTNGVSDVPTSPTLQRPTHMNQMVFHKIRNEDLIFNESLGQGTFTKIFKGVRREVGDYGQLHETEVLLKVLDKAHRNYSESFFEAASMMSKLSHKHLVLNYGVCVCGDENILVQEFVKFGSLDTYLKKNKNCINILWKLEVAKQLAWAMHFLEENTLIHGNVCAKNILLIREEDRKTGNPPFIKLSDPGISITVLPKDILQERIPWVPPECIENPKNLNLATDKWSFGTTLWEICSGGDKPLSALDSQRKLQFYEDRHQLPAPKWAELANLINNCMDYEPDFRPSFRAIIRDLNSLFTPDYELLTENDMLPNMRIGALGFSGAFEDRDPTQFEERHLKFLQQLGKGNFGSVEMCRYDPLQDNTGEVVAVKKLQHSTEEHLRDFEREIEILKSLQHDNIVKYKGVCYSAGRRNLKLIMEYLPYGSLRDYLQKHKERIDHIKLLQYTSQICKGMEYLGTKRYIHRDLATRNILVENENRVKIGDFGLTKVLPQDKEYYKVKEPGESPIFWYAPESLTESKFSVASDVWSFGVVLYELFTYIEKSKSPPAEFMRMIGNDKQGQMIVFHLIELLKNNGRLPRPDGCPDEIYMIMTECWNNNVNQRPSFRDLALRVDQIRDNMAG

Tyrosine-protein kinase JAK1, sequence (P23458 whole entry, the tested form may be a part): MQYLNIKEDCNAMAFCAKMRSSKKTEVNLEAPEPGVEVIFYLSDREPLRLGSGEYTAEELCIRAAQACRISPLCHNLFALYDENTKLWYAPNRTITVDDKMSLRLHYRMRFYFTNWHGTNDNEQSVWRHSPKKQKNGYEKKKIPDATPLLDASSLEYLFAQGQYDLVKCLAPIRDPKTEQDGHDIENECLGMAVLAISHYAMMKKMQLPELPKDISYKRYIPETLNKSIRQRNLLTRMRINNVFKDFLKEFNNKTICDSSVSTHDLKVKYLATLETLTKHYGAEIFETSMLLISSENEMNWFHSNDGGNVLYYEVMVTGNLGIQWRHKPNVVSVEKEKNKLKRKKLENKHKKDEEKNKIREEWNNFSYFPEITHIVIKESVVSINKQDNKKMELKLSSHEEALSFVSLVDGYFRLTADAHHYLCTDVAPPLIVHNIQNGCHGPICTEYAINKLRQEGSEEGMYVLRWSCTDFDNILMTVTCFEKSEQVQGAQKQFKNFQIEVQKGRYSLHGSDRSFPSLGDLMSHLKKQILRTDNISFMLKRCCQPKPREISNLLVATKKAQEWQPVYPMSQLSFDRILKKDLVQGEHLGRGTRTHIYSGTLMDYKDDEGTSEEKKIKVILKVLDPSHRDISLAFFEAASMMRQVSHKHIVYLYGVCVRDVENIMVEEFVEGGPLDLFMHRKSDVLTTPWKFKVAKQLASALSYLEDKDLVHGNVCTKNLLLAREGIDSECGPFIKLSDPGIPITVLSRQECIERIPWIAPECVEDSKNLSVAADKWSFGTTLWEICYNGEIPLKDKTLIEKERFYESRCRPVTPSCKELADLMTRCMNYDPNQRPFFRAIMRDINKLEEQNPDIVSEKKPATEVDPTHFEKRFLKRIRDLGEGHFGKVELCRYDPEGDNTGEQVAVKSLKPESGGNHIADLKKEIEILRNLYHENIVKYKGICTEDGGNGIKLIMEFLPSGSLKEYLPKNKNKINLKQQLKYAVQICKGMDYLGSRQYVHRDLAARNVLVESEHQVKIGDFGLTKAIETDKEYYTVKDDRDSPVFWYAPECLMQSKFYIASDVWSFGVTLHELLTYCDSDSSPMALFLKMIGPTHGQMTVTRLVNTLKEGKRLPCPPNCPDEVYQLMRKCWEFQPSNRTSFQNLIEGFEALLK

`C=CC(=O)Nc1ccc(-c2ccnc(Nc3ccc(N4CCOCC4)cc3)n2)cc1`: the Activity entry is “Non-Toxic” in [1], “Dose-dependent effect” in [9] and “Non-Toxic” in data set [12]. Further, the inhibition at 1 h, 0.1 µM in data set [2] was found to be 20.6%; in data set [3] it was 2.3%; in data set [6], 8%; in [8], 6.3%. For the same compound, the half-life in [4] was 28.2 min. For the same compound, the CLz/F in data set [5] amounted to 1619 mL/min/kg. In addition, the results for the IC50 in data set [7] and in [14] were 1320 nM and 1000 nM, respectively. The total exposure AUC(0-inf) in data set [10] worked out at 1270 ng·h/mL. Further, in data set [11], the inhibition entry is “Active”. Also, the inhibition result in data set [13] is “Dose-dependent effect”.

What is called inhibition is how much of the control response was suppressed. By IC50 is commonly meant the concentration that inhibits the measured activity by half. What is called AUC(0-inf) is total exposure, with the tail of the curve extrapolated. Low readings indicate low exposure, high ones high exposure.
